Measured values reported in article PMC7169845, “Synthesis and Bioactivity of Phthalimide Analogs as Potential Drugs to Treat Schistosomiasis, a Neglected Disease of Poverty” (Pharmaceuticals, 2020).

Columns and labels:
S. mansoni adults = assay: Phenotypic screen of S. mansoni adult worms (severity score); format: cell-based, Schistosoma mansoni; settings: for ADULT SEVERITY SCORES @ 10 µM, 1 h / ADULT SEVERITY SCORES @ 10 µM, 5 h / ADULT SEVERITY SCORES @ 10 µM, 24 h: score 0-4; for Adult Severity Score (10 µM) 1 h / Adult Severity Score (10 µM) 5 h / Adult Severity Score (10 µM) 24 h: score 0 to 4
Description: (§1) Functionalized Pht-based molecules were synthesized, and phenotypically screened at 10 µM as a function of time against S. Mansoni somules (up to 72 h) and adults (up to 24 h). The resulting phenotypes were classified using a previously described nomenclature that records the many non-exclusive changes (descriptors) that can occur in the parasite in response to chemical insult. Each descriptor is converted into a value from 0 (no effect) to 4 (maximal effect) to allow for comparisons of effects on the parasite between compounds [40, 41, 42, 43]. For consistency, we consider a score of 2 to be the minimum for a compound to be considered active.
(§2) Maintenance of the S. mansoni (Naval Medical Research Institute (NMRI) isolate), life cycle involved male Golden Syrian Hamsters and Biomphalaria glabrata snails (NMRI isolate), as the definitive and intermediate hosts, respectively. Use of hamsters was approved by the Institutional Animal Care and Use Committee of the University of California San Diego. The preparation of somules (post-infective larvae derived from infectious larvae called cercariae) and adult worms (≥42-days-old), and their co-incubation with test compounds using a customized Basch incubation medium were as described. Screens of two developmental stages were employed in order to identify compounds with a potential broader spectrum of efficacy than the current drug, PZQ, which is deficient in this regard. Screens with somules employed 96-well round-bottomed plates and 40–50 animals/well, whereas screens with adults employed 24-well flat-bottomed plates and approximately 5–7 males and 2–3 females/well. Screens employed a final compound concentration of 10 µM in DMSO (at 0.5% and 0.1% final concentrations for somules and adults, respectively). The complex and often dynamic phenotypic responses that the schistosome parasite is capable of were observed using an Axiovert A1 inverted microscope at the times indicated in the data table. Observations were codified using a defined nomenclature that involves simple “descriptors”, to convey changes in shape, motility and appearance compared to DMSO controls. Each descriptor was given a value of 1 and these were added up to yield a “severity score” with a maximum of 4. Evidence of degeneracy or death was awarded a value of 4 for adult parasites specifically, the inability to adhere to the bottom of the well using oral or ventral suckers was given a score of 1 and damage to the tegument (surface) was awarded a value of 4 on the understanding that such damage in vivo would compromise survival. Scores were averaged across the two experiments.

HepG2-A16-CD81EGFP cells = assay: HepG2 cell cytotoxicity assay (CellTiter-Glo); format: cell-based; settings: Homo sapiens, 72 h; for EC50: counter toxicity
Description: HepG2-A16-CD81EGFP cells (human hepatocarcinoma HepG2 cells stably transformed to express the tetraspanin CD81 receptor [51, 52]) were cultured at 37 °C in 5% CO2 in DMEM (without phenol red; Thermo Fisher Scientific, Waltham, MA, USA) supplemented with 10% FBS, 0.29 mg/mL glutamine, 100-unit penicillin and 100 μg/mL streptomycin. For cytotoxicity assays, compounds were prepared in 12-point 1:3 serial dilutions in DMSO starting at 10 mM. Then, 50 nL of compound (0.5% final DMSO concentration) were transferred with an Acoustic Transfer System (ATS) (Biosero) into white, solid bottom 1536-well assay plates (Greiner BioOne custom GNF mold; Monroe, NC, USA). Puromycin (12-point serial dilution starting at 10 μM) and 0.5% DMSO were used as positive and negative controls, respectively. After addition of compound, HepG2-A16-CD81EGFP cells in 10 µL of the above medium (5% FBS) were seeded into the assay plates at a density of 3,000 cells per well. Assay plates were incubated at 37 °C in 5% CO2for 72 h. To assess the HepG2 viability, the assay medium was removed by inverted centrifugation of the plate at 150 xg for 30 s. Then, 2 μL per well of CellTiter-Glo reagent (Promega diluted 1:2 with deionized water) was added using a MicroFlo liquid handler (BioTek). Immediately after addition of the CellTiter-Glo reagent, the luminescence was measured with an EnVision Multilabel reader (PerkinElmer). EC50 values were calculated using the normalized bioluminescence intensity and a non-linear, variable slope, four-parameter regression curve-fitting model in Prism 5 (GraphPad Software Inc., San Diego, CA, USA).

[1] = tested on: S. mansoni somules (schistosomula, post-infective larvae); assay: Phenotypic screen of S. mansoni somules (severity score); format: cell-based, Schistosoma mansoni; settings: for Somule Severity Score (10 µM) 24 h: score 0 (no effect) to 4 (maximum), averaged across two experiments; for Somule Severity Score (10 µM) 24 h / SOMULE SEVERITY SCORES @ 10 µM, 24: 24 h; for SOMULE SEVERITY SCORES @ 10 µM, 24 / SOMULE SEVERITY SCORES @ 10 µM, 48 / SOMULE SEVERITY SCORES @ 10 µM, 72: score 0-4; for SOMULE SEVERITY SCORES @ 10 µM, 48 / Somule Severity Score (10 µM) 48 h: 48 h; for Somule Severity Score (10 µM) 48 h / Somule Severity Score (10 µM) 72 h: score 0 to 4; for SOMULE SEVERITY SCORES @ 10 µM, 72 / Somule Severity Score (10 µM) 72 h / SOMULE DESCRIPTORS @ 10 µM, 72 h: 72 h; for SOMULE DESCRIPTORS @ 10 µM, 72 h: phenotypic descriptors
Description: as §1, §2

Compound	melting point [°C]	ADULT SEVERITY SCORES @ 10 µM, 1 h (S. mansoni adults)	Adult Severity Score (10 µM) 1 h (S. mansoni adults)	ADULT SEVERITY SCORES @ 10 µM, 5 h (S. mansoni adults; 5 h)	Adult Severity Score (10 µM) 5 h (S. mansoni adults; 5 h)	ADULT SEVERITY SCORES @ 10 µM, 24 h (S. mansoni adults; 24 h)	Adult Severity Score (10 µM) 24 h (S. mansoni adults; 24 h)	IC50 (HepG2-A16-CD81EGFP cells) [µM]	EC50 (HepG2-A16-CD81EGFP cells) [µM]	Somule Severity Score (10 µM) 24 h [1]	SOMULE SEVERITY SCORES @ 10 µM, 24 [1]	SOMULE SEVERITY SCORES @ 10 µM, 48 [1]	Somule Severity Score (10 µM) 48 h [1]	SOMULE SEVERITY SCORES @ 10 µM, 72 [1]	further results
Cc1ccc2c(c1)C(=O)N(C(C)c1nc3ccccc3n1Cc1cn(-c3c(F)cccc3F)nn1)C2=O (centres unmarked) [6q’, 2-(1-(1-((1-(2,6-Difluorophenyl)-1H-1,2,3-triazol-4-yl)methyl)-1H-benzo[d]imidazol-2-yl)ethyl)-5-methylisoindoline-1,3-dione]	166 to 168														
CC(C)C(c1nc2ccccc2n1Cc1cn(-c2c(F)c(F)c(F)c(F)c2F)nn1)N1C(=O)c2ccccc2C1=O (centres unmarked) [6r’, 2-(2-Methyl-1-(1-((1-(perfluorophenyl)-1H-1,2,3-triazol-4-yl)methyl)-1H-benzo[d]imidazol-2-yl)propyl)isoindoline-1,3-dione]	170 to 172														
CC(C)C(c1nc2ccccc2n1Cc1cn(-c2ccccc2F)nn1)N1C(=O)c2ccccc2C1=O (centres unmarked) [6s’, 2-(1-(1-((1-(2-Fluorophenyl)-1H-1,2,3-triazol-4-yl)methyl)-1H-benzo[d]imidazol-2-yl)-2-methylpropyl)isoindoline-1,3-dione]	115 to 117														
CC(C)C(c1nc2ccccc2n1Cc1cn(-c2ccc(F)cc2F)nn1)N1C(=O)c2ccccc2C1=O (centres unmarked) [6t’, 2-(1-(1-((1-(2,4-Difluorophenyl)-1H-1,2,3-triazol-4-yl)methyl)-1H-benzo[d]imidazol-2-yl)-2-methylpropyl)isoindoline-1,3-dione]	100 to 102														
CC(C)C(c1nc2ccccc2n1Cc1cn(-c2c(F)cccc2F)nn1)N1C(=O)c2ccccc2C1=O (centres unmarked) [6u’, 2-(1-(1-((1-(2,6-Difluorophenyl)-1H-1,2,3-triazol-4-yl)methyl)-1H-benzo[d]imidazol-2-yl)-2-methylpropyl)isoindoline-1,3-dione]	91 to 93														
CCC(C)C(c1nc2ccccc2n1Cc1cn(-c2ccccc2F)nn1)N1C(=O)c2ccccc2C1=O (centres unmarked) [6v, 2-(1-(1-((1-(2-Fluorophenyl)-1H-1,2,3-triazol-4-yl)methyl)-1H-benzo[d]imidazol-2-yl)-2-methylbutyl)isoindoline-1,3-dione]		0	0	0	0	0	0	> 100	> 100	0	0	0	0	0	Somule Severity Score (10 µM) 72 h [1]: 0
CCC(C)C(c1nc2ccccc2n1Cc1cn(-c2ccc(F)cc2F)nn1)N1C(=O)c2ccccc2C1=O (centres unmarked) [6w, 2-(1-(1-((1-(2,4-Difluorophenyl)-1H-1,2,3-triazol-4-yl)methyl)-1H-benzo[d]imidazol-2-yl)-2-methylbutyl)isoindoline-1,3-dione]		0	0	2	2	2	2	> 100	> 100	0	0	0	0	2	ADULT DESCRIPTORS @ 10 µM, 5 h (S. mansoni adults; 5 h, phenotypic descriptors): Unc, on sides; ADULT DESCRIPTORS @ 10 µM, 24 h (S. mansoni adults; 24 h, phenotypic descriptors): Unc, on sides; SOMULE DESCRIPTORS @ 10 µM, 72 h [1]: pD50; Somule Severity Score (10 µM) 72 h [1]: 2
CCC(C)C(c1nc2ccccc2n1Cc1cn(-c2c(F)cccc2F)nn1)N1C(=O)c2ccccc2C1=O (centres unmarked) [6x, 2-(1-(1-((1-(2,6-Difluorophenyl)-1H-1,2,3-triazol-4-yl)methyl)-1H-benzo[d]imidazol-2-yl)-2-methylbutyl)isoindoline-1,3-dione]		0	0	0	0	0	0	> 100	> 100	0	0	0	0	2	SOMULE DESCRIPTORS @ 10 µM, 72 h [1]: Dark, R
CC(c1nc2ccccc2n1Cc1cn(-c2ccc(F)cc2)nn1)N1C(=O)c2ccccc2C1=O (centres unmarked) [6y, 2-(1-(1-((1-(4-Fluorophenyl)-1H-1,2,3-triazol-4-yl)methyl)-1H-benzo[d]imidazol-2-yl)ethyl)isoindoline-1,3-dione]		0	0	0	0	0	0	> 100	> 100	0	0	0	0	0	Somule Severity Score (10 µM) 72 h [1]: 0

The next lines start with results.

melting point [°C]	Compound	ADULT SEVERITY SCORES @ 10 µM, 1 h (S. mansoni adults)	Adult Severity Score (10 µM) 1 h (S. mansoni adults)	ADULT SEVERITY SCORES @ 10 µM, 5 h (S. mansoni adults; 5 h)	Adult Severity Score (10 µM) 5 h (S. mansoni adults; 5 h)	ADULT SEVERITY SCORES @ 10 µM, 24 h (S. mansoni adults; 24 h)	Adult Severity Score (10 µM) 24 h (S. mansoni adults; 24 h)	IC50 (HepG2-A16-CD81EGFP cells) [µM]	EC50 (HepG2-A16-CD81EGFP cells) [µM]	Somule Severity Score (10 µM) 24 h [1]	SOMULE SEVERITY SCORES @ 10 µM, 24 [1]	SOMULE SEVERITY SCORES @ 10 µM, 48 [1]	Somule Severity Score (10 µM) 48 h [1]	SOMULE SEVERITY SCORES @ 10 µM, 72 [1]	further results
89 to 91	CCC(C)C(c1nc2ccccc2n1Cc1cn(-c2ccc(F)cc2F)nn1)N1C(=O)c2ccc(C)cc2C1=O (centres unmarked) [6r, 2-(1-(1-((1-(2,4-Difluorophenyl)-1H-1,2,3-triazol-4-yl)methyl)-1H-benzo[d]imidazol-2-yl)-2-methylbutyl)-5-methylisoindoline-1,3-dione]														
196 to 198	CCC(C)C(c1nc2ccccc2n1Cc1cn(-c2c(F)c(F)c(F)c(F)c2F)nn1)N1C(=O)c2ccc(C)cc2C1=O (centres unmarked) [6s, 5-Methyl-2-(2-methyl-1-(1-((1-(perfluorophenyl)-1H-1,2,3-triazol-4-yl)methyl)-1H-benzo[d]imidazol-2-yl)butyl)isoindoline-1,3-dione]														
86 to 88	CCC(C)C(c1nc2ccccc2n1Cc1cn(-c2c(F)c(F)c(F)c(F)c2F)nn1)N1C(=O)c2ccccc2C1=O (centres unmarked) [6t, 2-(2-Methyl-1-(1-((1-(perfluorophenyl)-1H-1,2,3-triazol-4-yl)methyl)-1H-benzo[d]imidazol-2-yl)butyl)isoindoline-1,3-dione]														
101 to 103	CCC(C)C(c1nc2ccccc2n1Cc1cn(-c2ccncc2)nn1)N1C(=O)c2ccccc2C1=O (centres unmarked) [6u, 2-(2-Methyl-1-(1-((1-(pyridin-4-yl)-1H-1,2,3-triazol-4-yl)methyl)-1H-benzo[d]imidazol-2-yl)butyl)isoindoline-1,3-dione]														
